Source: US20240263127A1, “CRYOPROTECTIVE COMPOSITIONS AND USES THEREOF” (DUPONT NUTRITION BIOSCIENCES APS, priority 2010, published 2024)
Where two headings read alike, the source gives them in different places.

Tests used:
[1] = system: Lactobacillus acidophilus; type: cell-based; conditions: for Viable cell counts after accelerated stability test: L. acidophilus; for Recovery of viable cell after accelerated stability test: Lactobacillus acidophilus, 14 days
Description: (§1) The cell count of the freeze dried material has been evaluated through a typical bacteria enumeration method used for lactic acid bacteria. In this method, the freeze dried bacteria were suspended into a MRS solution with a stomacher and revitalized in that solution for 30 minutes. The suspension was then successively diluted in bottles of peptone buffer and finally cultured on a MRS nutritive media for 48 to 72 hours at 38° C. under anaerobic condition. During that period, the bacteria form colonies on the nutritive media. Those colonies were counted and results were expressed as Colony Forming Units (CFU) per gram. Long term stability of freeze dried bacteria as a function of time is a critical characteristic for commercial application. The long term stability can be evaluated by accelerated stability test consisting of placing the freeze dried cells into a sealed laminated aluminum foil in a constant temperature chamber maintained at 38° C. for fourteen days. The cell count of the freeze dried material is measured before and after the exposure to elevated temperature. A recovery rate of cells is calculated by subtracting the cells measured after the accelerated stability test from the initial cells measurement and dividing the subtraction results by the initial count. The accelerated stability test recovery rate gives a relative estimate of the long term cell stability. Various cryoprotectants (see table 1) were mixed in a suspension containing, Lactobacillus acidophilus at an approximate cell count of 1E11 CFU/gr. The mixture, called stabilized concentrate, was kept at 4-8° C. for 1.5 hrs and continuously agitated before being frozen by dispensing droplets of the stabilized concentrate into liquid nitrogen. The resulting frozen droplets are called frozen pellets. The frozen pellets were freeze dried in a Virtis® freeze drier at 100 mT and a cell count measurement was performed just after freeze drying by performing an accelerated stability test. Various ratio of Inositol over Trehalose have been tested. The cryoprotectants were mixed for 1 to 3 hrs at 10-30° C. to a suspension containing Lactobacillus acidophilus at an approximate cell count of 1E11 CFU/gr. The mixture was frozen and freeze dried, and a cell count was performed just after freeze drying by performing an accelerated stability test, as disclosed in Example 1.

[2] = system: Lactobacillus acidophilus; test: Viable cell count after freeze drying with cryoprotectant; type: cell-based; conditions: for Recovery of viable cell from frozen pellets to freeze dried pellets: Example 2
Description: as §1, with “gram.” for “gram. Long term stability of freeze dried bacteria as a function of time is a critical characteristic for commercial application. The long term stability can be evaluated by accelerated stability test consisting of placing the freeze dried cells into a sealed laminated aluminum foil in a constant temperature chamber maintained at 38° C. for fourteen days. The cell count of the freeze dried material is measured before and after the exposure to elevated temperature. A recovery rate of cells is calculated by subtracting the cells measured after the accelerated stability test from the initial cells measurement and dividing the subtraction results by the initial count. The accelerated stability test recovery rate gives a relative estimate of the long term cell stability.”

[3] = freeze dried cells 38° C. for fourteen days, Example 1
[4] = L. acidophilus suspension approx. 1E11 CFU/gr, freeze dried at 100 mT, Example 1
[5] = 38° C. for fourteen days, Example 2
[6] = L. acidophilus, Example 2, Trehalose/Inositol ratios

OC[C@H]1O[C@H](O[C@H]2O[C@H](CO)[C@@H](O)[C@H](O)[C@H]2O)[C@H](O)[C@@H](O)[C@@H]1O [Trehalose alone experiment 2, Trehalose]
Viable cell counts after accelerated stability test [1, 3]: 2.4E+11 CFU/gr | Recovery of viable cell after accelerated stability test [1]: 38.0% | Viable cell counts after freeze drying [2, 4]: 6.6E+11 CFU/gr

O[C@H]1[C@H](O)[C@@H](O)[C@H](O)[C@@H](O)[C@H]1O [Trehalose 0.0 / Inositol 9.1, Inositol]
Recovery of viable cells after accelerated stability test [1]: 72.37% | Viable cell counts after accelerated stability test [1, 5]: 3.72E+11 CFU/gr | Recovery of viable cell from frozen pellets to freeze dried pellets ([2]; L. acidophilus): 81.2% | Viable cell counts after freeze drying [2, 6]: 5.14E+11 CFU/gr

OC[C@H]1O[C@H](O[C@H]2O[C@H](CO)[C@@H](O)[C@H](O)[C@H]2O)[C@H](O)[C@@H](O)[C@@H]1O [Trehalose alone experiment 1, Trehalose]
Viable cell counts after accelerated stability test [1, 3]: 2.2E+11 CFU/gr | Recovery of viable cell after accelerated stability test [1]: 29.0% | Viable cell counts after freeze drying [2, 4]: 7.4E+11 CFU/gr

O[C@H]1[C@H](O)[C@@H](O)[C@H](O)[C@@H](O)[C@H]1O [Trehalose 0.0 / Inositol 20.0, Inositol]
Recovery of viable cells after accelerated stability test [1]: 65.41% | Viable cell counts after accelerated stability test [1, 5]: 2.42E+11 CFU/gr | Recovery of viable cell from frozen pellets to freeze dried pellets ([2]; L. acidophilus): 94.7% | Viable cell counts after freeze drying [2, 6]: 3.70E+11 CFU/gr

O[C@H]1[C@H](O)[C@@H](O)[C@H](O)[C@@H](O)[C@H]1O [Inositol alone, Inositol]
Viable cell counts after accelerated stability test [1, 3]: 1.3E+11 CFU/gr | Recovery of viable cell after accelerated stability test [1]: 41.0% | Viable cell counts after freeze drying [2, 4]: 3.2E+11 CFU/gr
